Data on 1 compound can be found in patent US10391080B2, “Ketorolac for the treatment of cancer” (Cipla Limited, priority 2016, dated 2019).

One test has as its system Par-4. The experiment in a line: PAR-4 activity, Western blot of cell supernatant and lysate. The settings on record: normal mouse embryonic fibroblast cells, 25 μM, 18-21 h, cell supernatant, dose dependent. Type of test: cell-based. As for the experimental part: Mouse embryonic fibroblast cells were harvested from exponential phase cultures. After a 24 h recovery period to allow the cells to resume exponential growth the cells were treated with 25 μM of ketorolac followed by further 18-21 h of incubation. Induction of Par-4 was checked in the cell supernatant and cell lysate by subjecting the samples to Western blot analysis with antibodies specific for Par-4. The samples were also subjected to SDS/PAGE and Coomassie blue staining to determine albumin levels in serum from the CM as another loading control.
For orientation: Immunoblotting shows a protein as a band on a membrane.

In test [1] the test system is RXF 1183L. Put plainly: In vitro 3D combination study, clonogenic assay, Bliss independence. In kind it is cell-based, human. The conditions noted are these: RXF 1183L cells seeded in soft agar, concentration-dependent. As for the experimental part:
(§1) The objective of this study was to assess anti-tumor efficacy of ketorolac in combination with sunitinib in a 5×5 matrix combination format against tumor cell lines of renal cancer using a clonogenic assay with image analysis as read-out.
(§2) The clonogenic assay was carried out in a 96 well plate format using ultra low attachment plates. For each test cells were prepared as described above, and assay plates were prepared as follows: each test well contained a layer of semi-solid medium with tumor cells (50 μl), and a second layer of medium supernatant with or without test compounds (100 μl). The cell layer consisted of 3×10^3 to 1×10^4 tumor cells per well, which were seeded in 50 μl/well cell culture medium (IMDM, supplemented with 20% (v/v) fetal calf serum, 0.01% (w/v) gentamicin, and 0.4% (w/v) agar). The soft agar layer was immediately covered with 90 μl of the same culture medium without agar. After 24 h the test compounds were added after serial dilution in IMDM and transfer in cell culture medium, and left on the cells for the duration of the experiment (continuous exposure, 100 μL total drug overlay). Every plate included six untreated control wells and drug-treated groups in a layout as shown above. […] At the time of maximum colony formation, counts were performed with an automatic image analysis system (Celllnsight NXT, Thermo Scientific). […]

The test system of test [2] is RXF A-498. Described as above. In kind it is cell-based, human. The settings on record: RXF A-498 cells seeded in soft agar, concentration-dependent. As for the experimental part: as §1, §2
Another test deals with RXF 786-0. The experiment in a line: In vitro 2D assay, CellTiter-Blue Cell Viability Assay. Type of test: cell-based. The conditions noted are these: Homo sapiens, 786-O, 96 h treatment. As for the experimental part:
(§3) The objective of this study was to investigate the in-vitro anticancer activity of ketorolac. Antitumor activity was assessed in ten selected renal cancer cell lines by using the CellTiter-Blue Cell Viability Assay. The human renal cancer cell lines RXF 1183L, RXF 1220L, RXF 1781L, RXF 393L, RXF 486L, RXF 786-0, RXF A-498, RXF ACHN, RXF Caki-1 and RXF SN12C were used. RXF 1183L, RXF 1220L, RXF 1781L, RXF 393L and RXF 486L were established at Oncotest from the corresponding human patient-derived xenograft. The cell lines 786-0, A-498, Caki-1 and SN12C were purchased from NCI (National Cancer Institute, Bethesda, Md., USA). ACHN was purchased from ECACC (European Collection of Cell Cultures, Salisbury, UK). Authenticity of cell lines was confirmed at the DSMZ by STR (short tandem repeat) analysis, a PCR based DNA-fingerprinting methodology.
(§4) Cell lines were routinely passaged once or twice weekly and maintained in culture for up to 20 passages. All cells were grown at 37° C. in a humidified atmosphere with 5% CO2 in RPMI 1640 medium (25 mM HEPES, with L-glutamine, #FG1385, Biochrom, Berlin, Germany) supplemented with 10% (v/v) fetal calf serum (Sigma, Taufkirchen, Germany) and 0.1 mg/mL gentamicin (Life Technologies, Karlsruhe, Germany).
(§5) Ketorolac was dissolved at a concentration of 60 mM in cell culture media. Starting with this stock solution, dilutions were made using cell culture media resulting in final test concentrations of 12000, 7800, 6000, 4200, 3000, 1800, 600, 420, 180, 60 μM. Precipitation was not observed.
(§6) The CellTiter-Blue Cell Viability Assay was used according to manufacturer's instructions. Briefly, cells were harvested from exponential phase cultures, counted and plated in 96-well flat-bottom microtiter plates at a cell density of 4,000-12,000 cells/well depending on the cell line's growth rate. After a 24 h recovery period to allow the cells to resume exponential growth, ketorolac was applied at 8 to 10 concentrations in duplicate and treatment continued for 96 h. After 96 h treatment of cells, 20 μL/well CellTiter-Blue® reagent was added. Following an incubation period of up to four hours, fluorescence (FU) was measured by using the Enspire Multimode Plate Reader (excitation λ=531 nm, emission λ=615 nm).
(§7) For calculations, the mean values of duplicate/quadruplicate (untreated control) data were used. Sigmoidal concentration-response curves were fitted to the data points (T/C values) obtained for each cell line using 4 parameter non-linear curve fit.

The test system of the next test is RXF 393L. Described as above. In kind it is cell-based. The settings on record: Homo sapiens, 96 h treatment. As for the experimental part: as §3, §4, §5, §6, §7
The subject of test [3] is RXF 1183L. The description is as above. In kind it is cell-based. The conditions noted are these: Homo sapiens, 96 h treatment. The protocol:
as §3, §4, §5, §6, §7

In a further test the test system is RXF ACHN. Described as above. In kind it is cell-based. The settings on record: Homo sapiens, 96 h treatment. As for the experimental part:
as §3, §4, §5, §6, §7

The next test deals with RXF SN12C. The test is described as above. In kind it is cell-based. The settings on record: Homo sapiens, 96 h treatment. The protocol: as §3, §4, §5, §6, §7
The test system of a further test is RXF 486L. The description is as above. Type of test: cell-based. The settings on record: Homo sapiens, 96 h treatment. The protocol: as §3, §4, §5, §6, §7
The test system of test [4] is RXF A-498. The description is as above. Type of test: cell-based. The conditions noted are these: Homo sapiens, A498, A-498, 2D, 96 h treatment. As for the experimental part:
as §3, §4, §5, §6, §7

The test system of another test is RXF 1220L. The test is described as above. Type of test: cell-based. The conditions noted are these: Homo sapiens, 96 h treatment. As for the experimental part: as §3, §4, §5, §6, §7
In a further test the test system is RXF Caki-1. Described as above. In kind it is cell-based. The conditions noted are these: Homo sapiens, Caki-1, 2D, 96 h treatment. As for the experimental part: as §3, §4, §5, §6, §7
The next test concerns RXF 1781L. The description is as above. In kind it is cell-based. The conditions noted are these: Homo sapiens, 96 h treatment. The protocol: as §3, §4, §5, §6, §7

For orientation: IC50 means the midpoint of a concentration-inhibition curve.

Where two headings read alike, the source gives them in different places.

Take `O=C(c1ccccc1)c1ccc2n1CCC2C(=O)O` (racemic) [Ketorolac, (±)-5-benzoyl-2,3-dihydro-1H-pyrrolizine-1-carboxylic acid]: in the test on Par-4, the “Induction of Par-4 secretion” value is given as “robust Par-4 secretion”. Also, the “Colony formation, single agent” value with RXF 1183L [1] and in the test on RXF A-498 [2] was “inhibited colony formation” in each case. Further, the IC50 stood at 3.25 mM in the test with RXF 786-0 (read-out: Absolute IC50); 3.85 mM with RXF 786-0 (read-out: Relative IC50); 3.14 mM in the test with RXF 393L (read-out: Absolute IC50); 3.75 mM in the test with RXF 393L (read-out: Relative IC50); 2.4 mM in the test with RXF 1183L [3] (read-out: Absolute IC50); 2.67 mM in the test on RXF 1183L [3] (read-out: Relative IC50). The IC50 amounted to 2.8 mM in the test on RXF ACHN (read-out: Absolute IC50); 3.39 mM with RXF ACHN (read-out: Relative IC50); 2.44 mM in the test on RXF SN12C (read-out: Absolute IC50); 2.82 mM with RXF SN12C (read-out: Relative IC50); 3.15 mM with RXF 486L (read-out: Absolute IC50); 3.29 mM with RXF 486L (read-out: Relative IC50). Moreover, the IC50 with RXF A-498 [4] (read-out: Absolute IC50) is 4.75 mM; in the test with RXF A-498 [4] (read-out: Relative IC50), 5.65 mM; in the test with RXF 1220L (read-out: Absolute IC50) it was 4.77 mM; in the test with RXF 1220L (read-out: Relative IC50), 5.36 mM; with RXF Caki-1 (read-out: Absolute IC50) it was 2.79 mM; in the test on RXF Caki-1 (read-out: Relative IC50) it was 3.44 mM. Besides, the figures for the IC50 in the test on RXF 1781L (read-out: Absolute IC50) and with RXF 1781L (read-out: Relative IC50) were 3.82 mM and 4.44 mM, respectively.
